Results from patent US20250325529A1, “INHIBITORS OF FATTY ACID BINDING PROTEINS (FABPs), METHODS OF USE AND METHODS OF MAKING” (Celloram, inc., priority 2024, published 2025).
Entries after “also recorded” stand apart in the source; their conditions may differ. Like-named read-outs stand apart in the source and are kept apart here.

Legend:
FABP7 = FABP7 (Homo sapiens (Human), UniProt O15540); assay: Fluorescence (ANS) competition binding assay, FABP7; conditions: ANS displacement
Protocol: This example illustrates a two-step fluorescence binding assay study used to determine the binding affinity of the various inhibitor compounds disclosed herein with the various FABPs: FABP3, FABP4, FABP5 and FABP7. Further secondary screening studies were carried out for compounds with high binding affinities toward the FABPs and based on their ability to activate the nuclear receptors PPARα, PPARγ, or PPARδ.
Binding assays for FABP3, FABP4, FABP5 and FABP7 were carried out by fluorescence titrations. His-tagged FABPs were bacterially expressed in E. coli, purified using Ni Sepharose beads, and the equilibrium dissociation constants (Kd) that characterize their interactions with different inhibitor compounds were measured by fluorescence competition assays. The method entails two steps as described in e.g., Lin, Q. et al., “Ligand selectivity of the peroxisome proliferator-activated receptor alpha,” Biochemistry 38, 185-190, doi:10.1021/bi9816094 [pii](1999). In the first step, Kd for the association of the protein with the fluorescent fatty acid probe ANS was measured. Protein (2 μM) was titrated with ANS from a concentrated solution in DMSO. Ligand binding was monitored by following the increase in the fluorescence of the ligand upon binding to the protein, and Kd for the association of ANS with the each FABP was computed from titration curves as described in e.g., Norris, A. W. & Li, E., “Fluorometric titration of the CRABPs,” Methods Mol Biol 89, 123-139 (1998)). In the second step, Kds for binding of non-fluorescent ligands were measured by monitoring their ability to displace ANS in the binding pocket of the protein. Each FABP was precomplexed with ANS at 1:1 molar ratio and titrated with the different compounds whose binding was reflected by a decrease in probe fluorescence. Kds were extracted from the EC50 of the competition curve and the measured Kd for ANS.

PPARα = PPARα (Homo sapiens (Human), UniProt Q07869); assay: Transcriptional activation assay in COS7 cells, PPARα; type: cell-based; conditions: PPRE luciferase reporter, PD151 and PD152 at 10 μM
PPARα, sequence (Q07869 whole entry, species assumed): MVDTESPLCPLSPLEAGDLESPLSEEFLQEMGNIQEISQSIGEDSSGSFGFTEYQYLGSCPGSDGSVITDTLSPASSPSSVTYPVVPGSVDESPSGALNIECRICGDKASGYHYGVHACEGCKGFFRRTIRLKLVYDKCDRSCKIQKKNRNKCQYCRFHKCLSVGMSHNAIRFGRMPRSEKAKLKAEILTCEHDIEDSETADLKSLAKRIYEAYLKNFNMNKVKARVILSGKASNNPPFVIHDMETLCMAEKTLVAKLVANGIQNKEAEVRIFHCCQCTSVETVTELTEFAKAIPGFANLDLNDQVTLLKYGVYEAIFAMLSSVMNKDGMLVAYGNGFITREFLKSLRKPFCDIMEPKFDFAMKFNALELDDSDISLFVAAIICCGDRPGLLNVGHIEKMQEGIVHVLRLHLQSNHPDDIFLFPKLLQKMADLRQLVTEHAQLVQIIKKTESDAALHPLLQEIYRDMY
Protocol: COS-7 were cultured in 6-well plates and co-transfected with either a luciferase reporter driven by 3 copies of a PPRE and expression vector for either PPARδ, PPARα or PPARγ together with a vector harboring cDNA for β-galactosidase, serving as a transfection control. To test whether FABP4 or FABP5 mediate activation of their cognate receptors PPARγ and PPARδ, respectively, cells were also co-transfected with a plasmid harboring sequence of either FABP4 or FABP5. 18 h post-transfection, cells were placed in a serum-free medium and treated with agonist/compound. 18 h. later, cells were lysed, luciferase activity was assayed (Promega, WI, USA) and corrected for transfection efficiency by the activity of β-galactosidase.
Transcriptional activation assays were carried out utilizing COS7 cells as described above.

[1] = tested on: Salmonella typhimurium tester strains TA98, TA100, TA1535, TA1537 and Escherichia coli tester strain WP2 uvrA (pKM101); assay: Ames test, overall conclusion for the tested strains; type: cell-based; conditions: presence and absence of S9
Protocol: PD152 (compound 2) was tested for genotoxic and cytotoxic side effects by Ames test. The Ames test is a Bacterial Reverse Mutation Test of mutagenicity that utilizes Salmonella typhimurium tester strains TA98, TA100, TA1535, TA1537 and Escherichia coli tester strain WP2 uvrA (pKM101), both in the presence and absence of S9.
The compound PD152 was tested at 10 concentrations (0.032-1000 μg/plate) in the presence of, or absence of, the hepatic enzyme S9.
The aniline FABP4/5 inhibitor compound, 2-((2-((2,4-dichloro-5-isopropoxyphenyl)amino)-2-oxoethyl)thio)-2-methylpropanoic acid (compound “B104” as disclosed in WO2023043803A1) also was tested for genotoxic and cytotoxic side effects by Ames test. B104 was tested using the Salmonella typhimurium tester stains TA98, TA100, TA1535, and TA1537, both in the presence and absence of the hepatic enzyme S9, at 5 concentrations (1.5-64 μg/plate).

MB-231 xenograft tumors = assay: TNBC MB-231 xenograft model; type: in vivo, Nu/Nu nude mice; conditions: oral 20 or 40 mg/Kg, 5 times a week
Protocol: Seven-week-old Nu/Nu athymic female mice were injected subcutaneously into the right flank with 5×10^6 MB-231 cells 1:1 with Matrigel. Once tumors reached ˜50 mm^3 in size, mice were divided into 3 groups (n=5 for each group) and treatment started. Mice were treated by gavage with either vehicle (0.5% methyl cellulose, 1% Tween 80), 20 mg/kg, or 40 mg/kg of PD152 dissolved in vehicle, 5 days a week. Thirty days after treatment started mice were scarified. Statistical significance between the different treatment groups was evaluated using a Student's t-test. The experiment was conducted after approval by the institutional animal care and use committee at Case Western Reserve University.
TNBC xenograft model was used to test the efficacy of PD152 in suppressing tumors growth in vivo. 5×10^6 MB-231 cells were subcutaneously injected into the right flank of Nu/Nu nude mice and tumor growth was monitored twice a week. Once tumors were established and reached volume of ˜50 mm^3, mice were divided into 3 groups and treatments started. Mice were treated orally by either PD152 (20 mg/Kg, or 40 mg/Kg), or a vehicle 5 times a week.

[2] = Tissue distribution in C57BL/6 male mice; type: in vivo, C57BL/6 mice; conditions: oral 10 mg/kg; for PK parameters / concentration at 0.5 h / concentration at 2 h / concentration at 4 h / concentration at 8 h / Kp: mice; for concentration at 0.5 h / concentration at 2 h / concentration at 4 h / concentration at 8 h / Kp: male, C57BL/6, mouse; for Kp: read-out: Tissue/Plasma ratio (Kp)
[3] = brain, read-out: Brain concentration
[4] = liver, read-out: Liver concentration
[5] = pancreas, read-out: Pancreas concentration
[6] = plasma, read-out: Plasma concentration
[7] = skeletal muscle, read-out: Skeletal muscle concentration
[8] = white adipose tissue, read-out: Adipose tissue concentration

FABP7, sequence (O15540 whole entry, species assumed): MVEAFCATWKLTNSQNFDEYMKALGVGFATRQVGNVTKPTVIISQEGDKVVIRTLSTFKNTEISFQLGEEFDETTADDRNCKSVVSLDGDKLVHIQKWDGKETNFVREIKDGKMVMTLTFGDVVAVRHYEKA

**Q.** With `CC(C)Oc1nc(NC(=O)CSCC(=O)O)c(Cl)cc1Cl` [PD152, 2-((2-((3,5-dichloro-6-isopropoxypyridin-2-yl)amino)-2-oxoethyl)thio)acetic acid] as the compound, how does the Kd (FABP7) read?
**A.** Its Kd is 989 nM.

**Q.** What about the “Activation of transcription by PPARα” value (PPARα) of the same compound?
**A.** The value was “None of these tested compounds activated; also recorded: none of the tested compounds PD151 and PD152 activated transcription”.

**Q.** And the “Cytotoxicity to the tested strains” value [1]?
**A.** The value was “non-cytotoxic”.

**Q.** What about the “Mutagenicity in the Ames test” value [1] of the same compound?
**A.** The value was “non-mutagenic”.

**Q.** What about the “Tumor growth (volume over time)” value (MB-231 xenograft tumors; 30 days) of the same compound?
**A.** The value was “growth was completely inhibited”.

**Q.** What about the “Tumor weight at end point” value (MB-231 xenograft tumors; day 30) of the same compound?
**A.** Its value is “significantly lower”.

**Q.** And the PK parameters ([2]; Adipose tissue)?
**A.** Its PK parameters is 6655.32 ng·h/g.

**Q.** And the “Detection in the brain (blood-brain barrier crossing)” value ([2]; C57BL/6 male mice)?
**A.** Its value is “Only traces”.

**Q.** And the “Mean peak adipose tissue concentration” value ([2]; C57BL/6 male mice)?
**A.** Its value is 2109.6 ng/g.

**Q.** And the “Mean peak liver concentration” value ([2]; C57BL/6 male mice)?
**A.** The value was 3893.5 ng/g.

**Q.** What about the “Mean peak pancreas concentration” value ([2]; C57BL/6 male mice) of the same compound?
**A.** Its value is 215.09 ng/g.

**Q.** And the “Mean peak plasma concentration” value ([2]; C57BL/6 male mice)?
**A.** Its value is 3929.88 ng/mL.

**Q.** And the “Mean peak skeletal muscle concentration” value ([2]; C57BL/6 male mice)?
**A.** The value was 139.45 ng/g.

**Q.** What about the PK parameters ([2]; Liver) of the same compound?
**A.** Its PK parameters is 6704.59 ng·h/g.

**Q.** And the PK parameters ([2]; Pancreas)?
**A.** The PK parameters was 352.54 ng·h/g.

**Q.** What about the PK parameters ([2]; Skeletal Muscle) of the same compound?
**A.** The PK parameters was 270.09 ng·h/g.

**Q.** What about the concentration at 0.5 h [2, 3] of the same compound?
**A.** The concentration at 0.5 h was 14.8 ng/g.

**Q.** And the concentration at 2 h [2, 3]?
**A.** The concentration at 2 h was 0 ng/g.

**Q.** And the concentration at 4 h [2, 3]?
**A.** Its concentration at 4 h is 0 ng/g.

**Q.** And the concentration at 8 h [2, 3]?
**A.** Its concentration at 8 h is 0 ng/g.

**Q.** And the concentration at 0.5 h [2, 4]?
**A.** The concentration at 0.5 h was 3890 ng/g.

**Q.** What about the concentration at 2 h [2, 4] of the same compound?
**A.** The concentration at 2 h was 419 ng/g.

**Q.** What about the concentration at 4 h [2, 4] of the same compound?
**A.** The concentration at 4 h was 534 ng/g.

**Q.** And the concentration at 8 h [2, 4]?
**A.** The concentration at 8 h was 238 ng/g.

**Q.** And the concentration at 0.5 h [2, 5]?
**A.** Its concentration at 0.5 h is 215 ng/g.

**Q.** And the concentration at 2 h [2, 5]?
**A.** The concentration at 2 h was 28.2 ng/g.

**Q.** And the concentration at 4 h [2, 5]?
**A.** The concentration at 4 h was 20 ng/g.

**Q.** And the concentration at 8 h [2, 5]?
**A.** The concentration at 8 h was 14 ng/g.

**Q.** And the concentration at 0.5 h [2, 6]?
**A.** The concentration at 0.5 h was 3930 ng/mL.

**Q.** And the concentration at 2 h [2, 6]?
**A.** Its concentration at 2 h is 236 ng/mL.

**Q.** What about the concentration at 4 h [2, 6] of the same compound?
**A.** Its concentration at 4 h is 210 ng/mL.

**Q.** What about the concentration at 8 h [2, 6] of the same compound?
**A.** Its concentration at 8 h is 149 ng/mL.

**Q.** And the concentration at 0.5 h [2, 7]?
**A.** The concentration at 0.5 h was 139 ng/g.

**Q.** What about the concentration at 2 h [2, 7] of the same compound?
**A.** The concentration at 2 h was 26.5 ng/g.

**Q.** And the concentration at 4 h [2, 7]?
**A.** Its concentration at 4 h is 14 ng/g.

**Q.** And the concentration at 8 h [2, 7]?
**A.** Its concentration at 8 h is 21.1 ng/g.

**Q.** And the concentration at 0.5 h [2, 8]?
**A.** The concentration at 0.5 h was 2110 ng/g.

**Q.** What about the concentration at 2 h [2, 8] of the same compound?
**A.** Its concentration at 2 h is 1020 ng/g.

**Q.** What about the concentration at 4 h [2, 8] of the same compound?
**A.** Its concentration at 4 h is 520 ng/g.

**Q.** What about the concentration at 8 h [2, 8] of the same compound?
**A.** Its concentration at 8 h is 596 ng/g.

**Q.** And the Kp ([2]; Adipose tissue)?
**A.** Its Kp is 1.3.

**Q.** What about the Kp ([2]; Liver) of the same compound?
**A.** The Kp was 1.3.

**Q.** What about the Kp ([2]; Pancreas) of the same compound?
**A.** The Kp was 0.07.

**Q.** And the Kp ([2]; Skeletal Muscle)?
**A.** The Kp was 0.05.
